In ChEMBL document CHEMBL1201862, “PubChem BioAssay data set” (2004):
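Dose response: 5 concentrations. Exposure: 48 h. Format: 96-well plates. Endpoint: linear interpolation; highest concentration if not reached. GI50 marks 50% less growth.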 The source made the active and inactive calls. Rule as the data show it: active = GI50 up to about 1.1 µM and inactive = higher.

Key:
Assay in all cases: NCI tumour cell line growth inhibition, 48 h
CAKI-1 = system: CAKI-1
EKVX = system: EKVX
HCT-116 = system: HCT-116
IGROV-1 = system: IGROV-1
K562 = system: K562
LOX IMVI = system: LOX IMVI
M14 = system: M14
NCI-H522 = system: NCI-H522
OVCAR-3 = system: OVCAR-3
SF-539 = system: SF-539
SK-MEL-5 = system: SK-MEL-5
SN12C = system: SN12C
SNB-19 = system: SNB-19
SW-620 = system: SW-620
UO-31 = system: UO-31
RXF 393 = system: RXF 393
SK-MEL-2 = system: SK-MEL-2

Measured: GI50

NC12CC3CC(C1)CC(C(=O)O)(C3)C2
inactive: CAKI-1 > 100 µM | EKVX > 100 µM | HCT-116 > 100 µM | IGROV-1 > 100 µM | K562 2.73 µM | LOX IMVI > 100 µM | M14 > 100 µM | NCI-H522 > 100 µM | OVCAR-3 > 100 µM | SF-539 > 100 µM | SK-MEL-5 > 100 µM | SN12C > 100 µM | SNB-19 > 100 µM | SW-620 > 100 µM | UO-31 > 100 µM

O=C1CC(c2c[nH]c3ccccc23)C(=O)N1c1ccccc1 (centres undefined)
inactive: CAKI-1 > 100 µM | EKVX > 100 µM | HCT-116 > 100 µM | IGROV-1 > 100 µM | K562 > 100 µM | M14 > 100 µM | OVCAR-3 > 100 µM | RXF 393 > 100 µM | SF-539 > 100 µM | SK-MEL-2 > 100 µM | SK-MEL-5 > 100 µM | SW-620 > 100 µM | UO-31 83.6 µM

O=C1NC2(O)c3ccccc3C(=O)C2(O)N1c1ccccc1 (centres undefined)
inactive: CAKI-1 > 100 µM | EKVX > 100 µM | HCT-116 > 100 µM | IGROV-1 > 100 µM | K562 > 100 µM | LOX IMVI > 100 µM | M14 > 100 µM | NCI-H522 > 100 µM | OVCAR-3 > 100 µM | SF-539 > 100 µM | SK-MEL-2 > 100 µM | SNB-19 > 100 µM | SW-620 > 100 µM | UO-31 > 100 µM

CCSC(=O)C1(C)OC2CCCCC2C1=O (centres undefined)
inactive: CAKI-1 > 100 µM | HCT-116 > 100 µM | IGROV-1 > 100 µM | K562 > 100 µM | M14 > 100 µM | NCI-H522 > 100 µM | RXF 393 > 100 µM | SF-539 > 100 µM | SK-MEL-2 > 100 µM | SK-MEL-5 > 100 µM | SN12C > 100 µM | SNB-19 > 100 µM | SW-620 > 100 µM | UO-31 > 100 µM

C=CCN1C2Cc3cc(OC)c(OC)cc3C1Cc1cc(OC)c(OC)cc12
inactive: CAKI-1 > 100 µM | EKVX > 100 µM | K562 > 100 µM | M14 > 100 µM | NCI-H522 > 100 µM | OVCAR-3 > 100 µM | SK-MEL-2 > 100 µM | SK-MEL-5 > 100 µM | SN12C > 100 µM | SNB-19 > 100 µM | SW-620 > 100 µM | UO-31 64 µM

COc1cc2ccnc(-c3n[nH]c4cc(OC)c(OC)cc34)c2cc1OC
inactive: CAKI-1 > 100 µM | EKVX > 100 µM | HCT-116 > 100 µM | IGROV-1 > 100 µM | K562 > 100 µM | LOX IMVI > 100 µM | M14 > 100 µM | NCI-H522 22 µM | OVCAR-3 > 100 µM | SF-539 > 100 µM | SK-MEL-2 > 100 µM | SK-MEL-5 > 100 µM | SN12C > 100 µM | SNB-19 > 100 µM | SW-620 > 100 µM | UO-31 > 100 µM

N#CCCN(c1ccc(-c2nnc(NC(=O)CNNC(=O)CC(=O)Nc3ccccc3)s2)cc1)S(=O)(=O)c1ccccc1
inactive: CAKI-1 78 µM | EKVX > 100 µM | HCT-116 71.1 µM | IGROV-1 > 100 µM | K562 49.2 µM | LOX IMVI > 100 µM | NCI-H522 42.1 µM | OVCAR-3 52.6 µM | SF-539 > 100 µM | SK-MEL-2 > 100 µM | SK-MEL-5 52.1 µM | SN12C > 100 µM | SNB-19 > 100 µM | SW-620 > 100 µM | UO-31 46.3 µM
